Experimental data as given in patent US20200399222A1, “PICOLINAMIDES AS FUNGICIDES” (Dow AgroSciences LLC, priority 2018, published 2020).
Like-named read-outs stand apart in the source and are kept apart here.

Legend:
Type in all cases: in vivo
Zymoseptoria tritici = assay: Leaf blotch of wheat (SEPTTR) disease control on wheat seedlings; settings: Low volume application, 121.5 g/ha
Phakopsora pachyrhizi = assay: Asian soybean rust (PHAKPA) disease control on soybean seedlings; settings: Phakopsora pachyrhizi, High volume application at 25 ppm
How it was run: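 Compounds in acetone diluted with nine volumes of water containing 0.011% Tween 20, sprayed to run-off on two-week-old Williams 82 soybean seedlings; inoculation 3 days before or 1 day after treatment. Plants held 24 h in dark dew room at 22° C, 100% RH, then at 23° C; disease severity scored on sprayed leaves.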

[1] = tested on: Pseudoperonospora cubensis; assay: Cucumber downy mildew (PSPECU) disease control on cucumber seedlings; settings: 1DP test at 100 ppm
Description: Technical grades of materials were dissolved in acetone, which were then mixed with nine volumes of water containing 110 ppm Triton X-100. The fungicide solutions were applied onto wheat seedlings using an automated booth sprayer to run-off. All sprayed plants were allowed to air dry prior to further handling. All fungicides were evaluated using the aforementioned method for their activity vs. all target diseases, unless stated otherwise. Wheat leaf blotch and brown rust activity were also evaluated using track spray applications, in which case the fungicides were formulated as EC formulations, containing 0.1% Trycol 5941 in the spray solutions. Example H: Evaluation of Fungicidal Activity: Cucumber Downy Mildew (Pseudoperonospora cubensis; Bayer Code […]) Cucumber seedlings (variety Bush Pickle) were grown in soil-less Metro mix, with one plant per pot, and used in the test when 12 to 14 days old. Plants were inoculated with a spore suspension 24 hr following fungicide treatments. […] After inoculation the plants were kept in a dew room at 22° C. with 100% relative humidity for 24 hr to permit spores to germinate and infect the leaf. The plants were then transferred to a greenhouse set at 20° C. until disease was fully expressed. […]

Puccinia triticina = assay: Wheat brown rust (PUCCRT) disease control on wheat seedlings; settings: Low volume application, 121.5 g/ha
How it was run: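 Yuma wheat seedlings (first leaf emerged) sprayed to run-off with compound in acetone plus nine volumes water containing 110 ppm Triton X-100, or track-sprayed as EC formulations with 0.1% Trycol 5941. Rust spores inoculated before or after treatment; overnight dark dew, 22 °C, 100% RH, then greenhouse at 24 °C.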

Alternaria solani = assay: Tomato early blight (ALTESO) disease control on tomato plants; settings: 1DP test at 100 ppm
Description: Technical grades of materials were dissolved in acetone, which were then mixed with nine volumes of water containing 110 ppm Triton X-100. The fungicide solutions were applied onto wheat seedlings using an automated booth sprayer to run-off. All sprayed plants were allowed to air dry prior to further handling. All fungicides were evaluated using the aforementioned method for their activity vs. all target diseases, unless stated otherwise. Wheat leaf blotch and brown rust activity were also evaluated using track spray applications, in which case the fungicides were formulated as EC formulations, containing 0.1% Trycol 5941 in the spray solutions. Example D: Evaluation of Fungicidal Activity: Tomato Early Blight (Alternaria solani; Bayer Code […]) Tomato plants (variety Outdoor Girl) were propagated in soil-less Metro mix, with each pot having one plant, and used when 12 to 14 days old. Test plants were inoculated with an aqueous spore suspension of Alternaria solani 24 hr after fungicide treatments. After inoculation the plants were kept in 100% relative humidity (one day in a dark dew chamber followed by two to three days in a lighted dew chamber at 20° C.) to permit spores to germinate and infect the leaf. The plants were then transferred to a growth room at 22° C. for disease to develop. […]

Uncinula necator = assay: Grape powdery mildew (UNCINE) disease control on grape seedlings; settings: 1DP test at 100 ppm
Description: Technical grades of materials were dissolved in acetone, which were then mixed with nine volumes of water containing 110 ppm Triton X-100. The fungicide solutions were applied onto wheat seedlings using an automated booth sprayer to run-off. All sprayed plants were allowed to air dry prior to further handling. All fungicides were evaluated using the aforementioned method for their activity vs. all target diseases, unless stated otherwise. Wheat leaf blotch and brown rust activity were also evaluated using track spray applications, in which case the fungicides were formulated as EC formulations, containing 0.1% Trycol 5941 in the spray solutions. Example K: Evaluation of Fungicidal Activity: Grape Powdery Mildew (Uncinula necator; Bayer Code […]) Grape seedlings (variety Carignane) were grown in soil-less Metro mix, with one plant per pot, and used in the test when approximately 1 month old. Plants were inoculated 24 hr after fungicide treatment by shaking spores from infected leaves over test plants. Plants were maintained in a greenhouse set at 20° C. until disease was fully developed. Fungicide formulation, application and disease assessment on sprayed leaves followed the procedures as described in the Example A.

Rhyncosporium secalis = assay: Barley scald (RHYNSE) disease control on barley seedlings; settings: 1DP test at 100 ppm
Description: Technical grades of materials were dissolved in acetone, which were then mixed with nine volumes of water containing 110 ppm Triton X-100. The fungicide solutions were applied onto wheat seedlings using an automated booth sprayer to run-off. All sprayed plants were allowed to air dry prior to further handling. All fungicides were evaluated using the aforementioned method for their activity vs. all target diseases, unless stated otherwise. Wheat leaf blotch and brown rust activity were also evaluated using track spray applications, in which case the fungicides were formulated as EC formulations, containing 0.1% Trycol 5941 in the spray solutions. Example J: Evaluation of Fungicidal Activity: Barley Scald (Rhyncosporium secalis; Bayer Code […]) Barley seedlings (variety Harrington) were propagated in soil-less Metro mix, with each pot having 8 to 12 plants, and used in the test when first leaf was fully emerged. Test plants were inoculated by an aqueous spore suspension of Rhyncosporium secalis 24 hr after fungicide treatments. After inoculation the plants were kept in a dew room at 20° C. with 100% relative humidity for 48 hr. The plants were then transferred to a greenhouse set at 20° C. for disease to develop. Fungicide formulation, application and disease assessment on the sprayed leaves followed the procedures as described in the Example A.

[2] = 24 h, 1 Day Protectant, read-out: SEPTTR disease control rating, 1DP
[3] = 72 h, 3 Day Curative, read-out: SEPTTR disease control rating, 3DC
[4] = 24 h, 1 day protectant, read-out: PHAKPA 1DP (1 Day Protectant) disease control
[5] = 72 h, 3 day curative, read-out: PHAKPA 3DC (3 Day Curative) disease control
[6] = 24 h, 1 Day Protectant, read-out: PUCCRT disease control rating, 1DP
[7] = 72 h, 3 Day Curative, read-out: PUCCRT disease control rating, 3DC

Row | SMILES | pest or weed control at 121.5 g/ha (Zymoseptoria tritici; [2]) [%] | pest or weed control at 121.5 g/ha (Zymoseptoria tritici; [3]) [%] | pest or weed control at 25 ppm (Phakopsora pachyrhizi; [4]) [%] | pest or weed control at 25 ppm (Phakopsora pachyrhizi; [5]) [%] | PSPECU disease control rating [1] | pest or weed control at 121.5 g/ha (Puccinia triticina; [6]) [%] | pest or weed control at 121.5 g/ha (Puccinia triticina; [7]) [%] | ALTESO disease control rating (Alternaria solani) | UNCINE disease control rating (Uncinula necator) | RHYNSE disease control rating (Rhyncosporium secalis)
1 | COc1ccnc(C(=O)N[C@@H](C)C(=O)O[C@@H](C)[C@@H](C)c2ccccc2C)c1OC(C)=O [Example 264] | < 80 | < 80 | > 80 | > 80 | B (≤80) | > 80 | > 80 | B (≤80) | A (>80) | –
2 | COc1ccnc(C(=O)N[C@@H](C)C(=O)O[C@H](C)[C@H](C)c2ccccc2C)c1OC(C)=O [Example 263] | < 80 | < 80 | > 80 | < 80 | – | < 80 | < 80 | – | – | B (≤80)
3 | COc1ccnc(C(=O)N[C@@H](C)C(=O)O[C@H](C)[C@H](C)c2ccc(F)cc2C(F)(F)F)c1OC(=O)C(C)C [Example 240] | < 80 | < 80 | < 80 | < 80 | – | < 0 | < 0 | – | – | –
